# Patent US12157730B2, “Heteroaryl derivative, method for producing same, and pharmaceutical composition comprising same as effective component” (VORONOI INC., priority 2019, dated 2024)
# “And” between values parts separate entries of the source, which are not always exact repeats. Equal values may be shown once.
# How the values were obtained:
# [1] = target: T1, Ba/F3 cell EGFR L858R/T790M (Homo sapiens, UniProt P00533, L858R/T790M); test: Ba/F3 cell proliferation suppression, EGFR L858R/T790M; type: cell-based; settings: 72 hours after treatment, CellTiter-Glo
# T1 construct: expressed in transfected cells; host or cells: Ba/F3
# Procedure: (§1) The following experiment was carried out to evaluate the suppression activity of the compounds according to the present invention against proliferation of Ba/F3 and lung cancer cells which express EGFR mutations.
# (§2) Of the cancer cell lines expressing the EGFR gene, A549 was cultured after adding 10% FBS (HyClone) to DMEM (Invitrogen), and RPMI-1640 (Invitrogen) with 10% FBS was used for the other cancer cells. For the Ba/F3 cells, RPMI-1640 with 10% FBS and 5 ng/ml IL-3 (R&D Systems) was used. The transduced Ba/F3 cells were cultured by adding 1 ug/ml puromycin (Invitrogen) to the same medium.
# (§3) 24 hours before treatment with the compounds, 3000 to 5000 cells were distributed into each well of a white clear bottom 96 well plate (Corning). The compounds were diluted in dimethylsulfoxide (dilution ratio 3:1; 12 concentrations total) and injected 0.5 ul each for a final concentration of 0.3 nM to 50 um. As for measurement of live cells, 72 hours after treatment with the compounds, a CellTiter-Glo luminescent cell-viability reagent (Promega) was used to store the cells at room temperature for 10 minutes, followed by measurement of luminescence using a reader (SynergyNeo, Biotek). Each test was repeated three times.
# (§4) The result was calculated as a cell growth ratio (%) compared to a control. The program GraphPad Prism version 5.0 was used to draw the graphs and calculate the GI50 values.
# [2] = target: T2, Ba/F3 cell EGFR Exon20 ins NPH (Homo sapiens, UniProt P00533, INS773NPH); test: Ba/F3 cell proliferation suppression, EGFR Exon20 ins NPH; type: cell-based; settings: for GI50: 72 hours after treatment, CellTiter-Glo; for Ba/F3 (NPH) Activity: GI50 class, Ba/F3 cell line with NPH inserted at Exon20 of EGFR, 72 hours
# T2 construct: expressed in transfected cells; host or cells: Ba/F3
# How it was run: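 Seed 3000–5000 cells/well; after 24 h add compound (12 conc., 0.3 nM–50 um final); incubate 72 h; add CellTiter-Glo, 10 min room temperature; read luminescence; GI50 from % growth vs control, triplicate.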
# Ba/F3 cell naive = test: Ba/F3 cell proliferation suppression, naive; type: cell-based; settings: Mus musculus, BaF3; 72 hours after treatment, CellTiter-Glo
# Procedure: as §1, §2, §3, §4
# [3] = target: T3, Ba/F3 cell EGFR Exon20 ins ASV (Homo sapiens, UniProt P00533, INS769ASV); test: Ba/F3 cell proliferation suppression, EGFR Exon20 ins ASV; type: cell-based; settings: 72 hours after treatment, CellTiter-Glo
# T3 construct: expressed in transfected cells; host or cells: Ba/F3
# Procedure: as §1, §2, §3, §4
# [4] = test system: Ba/F3 cell EGFR Del19/T790M; test: Ba/F3 cell proliferation suppression, EGFR Del19/T790M; type: cell-based; settings: 72 hours after treatment, CellTiter-Glo
# Procedure: as §1, §2, §3, §4
# [5] = test system: scanMAX kinase panel (EGFR mutant, ERBB2, ERBB4); test: DiscoverX (eurofin) KINOMEscan (scanMAX platform) kinase profiling; type: binding
# Excerpt: It was confirmed that the above example compounds had high selectivity against EGFR series genes. Accordingly, these can be useful in the treating of cancers wherein this kinase is expressed. In particular, as they have substantially outstanding lung cancer cell line proliferation suppression, they can be useful in the treatment of lung cancer, breast cancer, and brain cancer.
# [6] = target: T4, Ba/F3 cell EGFR Exon20 ins FQEA (Homo sapiens, UniProt P00533, INS763FQEA); test: Ba/F3 cell proliferation suppression, EGFR Exon20 ins FQEA; type: cell-based; settings: 72 hours after treatment, CellTiter-Glo
# T4 construct: expressed in transfected cells; host or cells: Ba/F3
# Procedure: as §1, §2, §3, §4
# [7] = target: T5, Ba/F3 cell HER2 Exon20 ins YVMA (Homo sapiens, UniProt P04626, INS775YVMA); test: Ba/F3 cell proliferation suppression, HER2 Exon20 ins YVMA; type: cell-based; settings: 72 hours after treatment, CellTiter-Glo
# T5 construct: expressed in transfected cells; host or cells: Ba/F3
# T5 sequence (P04626 with tags, fused parts or gaps INS775YVMA): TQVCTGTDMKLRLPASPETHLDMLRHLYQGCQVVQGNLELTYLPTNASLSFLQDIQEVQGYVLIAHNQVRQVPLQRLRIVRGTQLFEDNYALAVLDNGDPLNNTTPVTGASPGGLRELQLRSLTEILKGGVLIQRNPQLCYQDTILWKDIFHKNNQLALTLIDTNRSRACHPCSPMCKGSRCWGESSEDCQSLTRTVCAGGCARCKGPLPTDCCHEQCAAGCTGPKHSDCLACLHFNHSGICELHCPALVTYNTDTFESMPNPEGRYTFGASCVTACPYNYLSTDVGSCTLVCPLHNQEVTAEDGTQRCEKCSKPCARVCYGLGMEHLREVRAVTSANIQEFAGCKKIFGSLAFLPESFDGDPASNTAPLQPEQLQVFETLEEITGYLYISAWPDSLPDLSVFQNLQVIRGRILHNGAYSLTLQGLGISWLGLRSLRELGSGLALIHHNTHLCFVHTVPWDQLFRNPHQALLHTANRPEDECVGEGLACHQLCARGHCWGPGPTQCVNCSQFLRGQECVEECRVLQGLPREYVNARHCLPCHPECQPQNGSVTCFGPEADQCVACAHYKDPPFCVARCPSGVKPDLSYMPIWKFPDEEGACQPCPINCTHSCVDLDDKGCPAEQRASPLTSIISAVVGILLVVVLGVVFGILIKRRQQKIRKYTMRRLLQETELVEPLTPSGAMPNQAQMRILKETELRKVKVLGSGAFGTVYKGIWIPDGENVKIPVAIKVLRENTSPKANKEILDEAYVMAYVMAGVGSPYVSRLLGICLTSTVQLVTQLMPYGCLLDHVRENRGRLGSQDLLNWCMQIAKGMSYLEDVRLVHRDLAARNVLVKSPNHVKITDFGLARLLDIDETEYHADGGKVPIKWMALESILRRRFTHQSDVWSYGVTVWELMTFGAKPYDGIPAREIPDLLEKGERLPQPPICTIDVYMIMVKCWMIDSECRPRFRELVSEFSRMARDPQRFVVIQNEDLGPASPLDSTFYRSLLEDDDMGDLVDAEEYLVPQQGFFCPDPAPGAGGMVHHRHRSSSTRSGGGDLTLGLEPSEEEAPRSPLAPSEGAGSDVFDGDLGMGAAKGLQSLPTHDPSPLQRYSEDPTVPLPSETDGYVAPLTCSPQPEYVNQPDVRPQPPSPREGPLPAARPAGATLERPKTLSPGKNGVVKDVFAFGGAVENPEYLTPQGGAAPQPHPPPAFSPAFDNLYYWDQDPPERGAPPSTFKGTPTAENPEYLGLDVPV
# Procedure: as §1, §2, §3, §4
# PC9 = test: Lung cancer cell proliferation suppression, PC9; type: cell-based; settings: Homo sapiens, PC-9; 72 hours after treatment, CellTiter-Glo
# Procedure: as §1, §2, §3, §4
# [8] = target: T6, Ba/F3 cell EGFR Exon20 ins SVD (Homo sapiens, UniProt P00533, INS770SVD); test: Ba/F3 cell proliferation suppression, EGFR Exon20 ins SVD; type: cell-based; settings: 72 hours after treatment, CellTiter-Glo
# T6 construct: expressed in transfected cells; host or cells: Ba/F3
# Procedure: as §1, §2, §3, §4
# Ba/F3 cell EGFR L858R = target: T7, Ba/F3 cell EGFR L858R (Homo sapiens, UniProt P00533, L858R); test: Ba/F3 cell proliferation suppression, EGFR L858R; type: cell-based; settings: 72 hours after treatment, CellTiter-Glo
# T7 construct: expressed in transfected cells; host or cells: Ba/F3
# Procedure: as §1, §2, §3, §4
# PC9GR = test: Lung cancer cell proliferation suppression, PC9GR; type: cell-based; settings: 72 hours after treatment, CellTiter-Glo
# Procedure: as §1, §2, §3, §4
# H1975 = test: Lung cancer cell proliferation suppression, H1975; type: cell-based; settings: Homo sapiens, NCI-H1975; 72 hours after treatment, CellTiter-Glo
# Procedure: as §1, §2, §3, §4
Compound,GI50 [1],GI50 [2],Ba/F3 (NPH) Activity [2],GI50 (Ba/F3 cell naive),GI50 [4],GI50 (Ba/F3 cell EGFR L858R),also measured
"C=CC(=O)Nc1cc(Nc2cc(N3OCC[C@@H]3c3cc(F)cc(F)c3)ncn2)c(OC)cc1N1CCC(N2CC[C@@H](N(C)C)C2)CC1 [Example 237, N-(5-((6-((R)-3-(3,5-difluorophenyl)isoxazolidine-2-yl)pyrimidine-4-yl)amino)-2-(4-((R)-3-(dimethylamino)pyrolidine-1-yl)piperidine-1-yl)-4-methoxyphenyl) acrylamide]",< 0.05 µM,< 0.05 µM,A (GI50 < 50 nM),≥ 5 µM,,,GI50 [3]: < 0.05 µM
"C=CC(=O)Nc1cc(Nc2cc(N3OCC[C@@H]3c3cc(F)cc(F)c3)ncn2)c(OC)cc1N1CCC(N(C)C)CC1 [Example 241, N-(5-((6-((R)-3-(3,5-difluorophenyl)isoxazolidine-2-yl)pyrimidine-4-yl)amino)-2-(4-(dimethylamino)piperidine-1-yl)-4-methoxyphenyl) acrylamide]",< 0.05 µM,< 0.05 µM,A (GI50 < 50 nM),0.5 to 5 µM,< 0.05 µM,< 0.05 µM,"% inhibition of scanMAX Kinase profiling ([5]; EGFR(E746-A750del)): 50% and 100%; % inhibition of scanMAX Kinase profiling ([5]; EGFR(G719C)): 100%; % inhibition of scanMAX Kinase profiling ([5]; EGFR(G719S)): 100% and 99%; % inhibition of scanMAX Kinase profiling ([5]; EGFR(L747-E749del, A750P)): 99% and 98%; % inhibition of scanMAX Kinase profiling ([5]; EGFR(L747-T751del.Sins)): 100% and 96%; % inhibition of scanMAX Kinase profiling ([5]; EGFR(L858R.T790M)): 96% and 98%; % inhibition of scanMAX Kinase profiling ([5]; EGFR(L861q)): 100% and 98%; % inhibition of scanMAX Kinase profiling ([5]; EGFR(S752-I759del)): 100% and 95%; % inhibition of scanMAX Kinase profiling ([5]; EGFR(T790M)): 100%; % inhibition of scanMAX Kinase profiling ([5]; ERBB2): 100%; % inhibition of scanMAX Kinase profiling ([5]; ERBB4): 100% and 94%; suppression activity against the EGFR mutant and ERBB2 and ERBB4 ([5]; KINOMEscan scanMAX kinase profiling): high suppression activity; GI50 [6]: < 0.05 µM; GI50 [7]: < 0.05 µM; GI50 (PC9): 1 nM; GI50 [8]: < 0.05 µM; GI50 (PC9GR): 12 nM; GI50 (H1975): 1 nM; GI50 [3]: < 0.05 µM"
"C=CC(=O)Nc1cc(Nc2cc(N3OCC[C@H]3c3ccccc3)ncn2)c(OC)cc1N(C)CCN(C)C [Example 1, N-(2((2-(dimethylamino)ethyl) (methyl)amino)-4-methoxy-5-((6-((S)-3-phenylisoxazolidine-2-yl)pyrimidine-4-yl)amino)phenyl) acrylamide]",0.05 to 0.5 µM,,,≥ 5 µM,0.05 to 0.5 µM,< 0.05 µM,
"C=CC(=O)Nc1cc(Nc2cc(N3OCC[C@@H]3c3ccccc3)ncn2)c(OC)cc1N1CCOCC1 [Example 5, N-(4-methoxy-2-morpholino-5-((6-((R)-3-phenylisoxazolidine-2-yl)pyrimidine-4-yl)amino)phenyl) acrylamide]",0.05 to 0.5 µM,,,≥ 5 µM,0.05 to 0.5 µM,< 0.05 µM,
"C=CC(=O)Nc1cc(Nc2cc(N3OCC[C@H]3c3ccccc3)ncn2)c(OC)cc1N1CCOCC1 [Example 2, N-(4-methoxy-2-morpholino-5-((6-((S)-3-phenylisoxazolidine-2-yl)pyrimidine-4-yl)amino)phenyl) acrylamide]",0.5 to 5 µM,,,≥ 5 µM,0.5 to 5 µM,0.05 to 0.5 µM,
"C=CC(=O)Nc1cc(Nc2cc(N3OCC[C@@H]3c3cc(F)cc(F)c3)ncn2)c(OC)cc1N1CCC(N2CCN(C)CC2)CC1 [Example 26, N-(5-((6-((R)-3-(3,5-difluorophenyl)isoxazolidine-2-yl)pyrimidine-4-yl)amino)-4-methoxy-2-(4-(4-methylpiperazine-1-yl)piperidine-1-yl)phenyl)acrylamide]",< 0.05 µM,< 0.05 µM,A (GI50 < 50 nM),≥ 5 µM,,,GI50 [7]: < 0.05 µM; GI50 [8]: < 0.05 µM
"C=CC(=O)Nc1cc(Nc2cc(N3OCC[C@@H]3c3ccccc3)ncn2)c(OC)cc1N1CCN(C2CC2)CC1 [Example 7, N-(2-(4-cyclopropylpiperazine-1-yl)-4-methoxy-5-((6-((R)-3-phenylisoxazolidine-2-yl)pyrimidine-4-yl)amino)phenyl) acrylamide]",0.05 to 0.5 µM,,,≥ 5 µM,< 0.05 µM,,
C=CC(=O)Nc1cc(Nc2cc(N3OCC[C@@H]3c3cc(F)cc(F)c3)ncn2)c(OC)cc1N1CCC(N2CCC(N(C)C)CC2)CC1 [Example 253],< 0.05 µM,< 0.05 µM,A (GI50 < 50 nM),0.5 to 5 µM,,,
"C=CC(=O)Nc1cc(Nc2cc(N3OCC[C@@H]3c3cc(F)cc(F)c3)ncn2)c(OC)cc1N1CCC(N2CC[C@H](N(C)C)C2)CC1 [Example 250, N-(5-((6-((R)-3-(3,5-difluorophenyl)isoxazolidine-2-yl)pyrimidine-4-yl)amino)-2-(4-((S)-3-(dimethylamino)pyrolidine-1-yl)piperidine-1-yl)-4-methoxyphenyl) acrylamide]",< 0.05 µM,< 0.05 µM,A (GI50 < 50 nM),≥ 5 µM,,,
"C=CC(=O)Nc1cc(Nc2cc(N3OCC[C@@H]3c3cc(F)cc(F)c3)ncn2)c(OC)cc1N1CCC(N2CCN(C(C)=O)CC2)CC1 [Example 251, N-(2-(4-(4-acetylpiperazine-1-yl)piperidine-1-yl)-5-((6-((R)-3-(3,5-difluorophenyl)isoxazolidine-2-yl)pyrimidine-4-yl)amino)-4-methoxyphenyl) acrylamide]",< 0.05 µM,< 0.05 µM,A (GI50 < 50 nM),≥ 5 µM,,,
"C=CC(=O)Nc1cc(Nc2cc(N3OCC[C@@H]3c3cc(F)cc(F)c3)ncn2)c(OC)cc1N1CCN(CC)CC1 [Example 240, N-(5-((6-((R)-3-(3,5-difluorophenyl)isoxazolidine-2-yl)pyrimidine-4-yl)amino)-2-(4-ethylpiperazine-1-yl)-4-methoxyphenyl) acrylamide]",< 0.05 µM,< 0.05 µM,A (GI50 < 50 nM),≥ 5 µM,,,GI50 [3]: < 0.05 µM
"C=CC(=O)Nc1cc(Nc2cc(N3OCC[C@@H]3c3cc(F)cc(F)c3)ncn2)c(OC)cc1N1CCC(N2CC3CC(C2)N3CC)CC1 [Example 252, N-(5-((6-((R)-3-(3,5-difluorophenyl)isoxazolidine-2-yl)pyrimidine-4-yl)amino)-2-(4-(6-ethyl-3,6-diazabicyclo[3.1.1]heptane-3-yl)piperidine-1-yl)-4-methoxyphenyl) acrylamide]",< 0.05 µM,< 0.05 µM,A (GI50 < 50 nM),0.5 to 5 µM,,,
"C=CC(=O)Nc1cc(Nc2cc(N3OCC[C@@H]3c3ccccc3)ncn2)c(OC)cc1OCCN(C)C [Example 8, N-(2-(2-(dimethylamino)ethxy)-4-methoxy-5-((6-(R)-3-phenylisoxazolidine-2-yl)pyrimidine-4-yl-amino)phenyl) acrylamide]",0.05 to 0.5 µM,,,0.5 to 5 µM,0.05 to 0.5 µM,,
